Experimental data taken from patent US8227428B2, “Anti-infammatory macrolide” (Glaxo Group Limited, priority 2009, dated 2012).
In brackets after ≈: the same amount, converted by molar mass.

Key:
[1] = In vitro stability in human plasma; assay type: in vitro ADME; details: 37° C.
Procedure: (§1) An in vitro stability study in human whole blood and plasma is carried out over 24 hours at 37° C. Drug-free freshly collected human blood (CPD—citrate-phosphate-dextrose is used for all blood collections as anticoagulant) and plasma are spiked with a previously prepared standard solution of test compound to a final concentration of 2000 ng/mL. For each compound blood and plasma are spiked in duplicate and incubated for 24 hours. Two separate aliquots of blood or plasma (50 μL) are sampled from each incubation mixture at 0, 15, 30, 60, 120, 240 and 1440 minutes. All aliquots are mixed with an equal volume of water (50 μL) and extracted with 300 μL of acetonitrile/methanol (2:1) containing internal standard (roxithromycin). The samples are then vortexed, centrifuged and analysed by LC/MS/MS (MRM mode). Results are expressed as the percentage of compound remaining, expressed as the ratio of analyte/internal standard.

[2] = test system: Streptococcus pneumoniae ATCC49619; assay: Anti-bacterial screening, broth microdilution MIC; assay type: cell-based; details: read-out: minimal inhibitory concentration (MIC)
Procedure: (§2) Whole-cell antimicrobial activity of compounds against clinically relevant bacteria (Staphylococcus aureus ATCC13709, Streptococcus pneumoniae ATCC49619, Streptococcus pyogenes ATCC700294, Moraxella catarrhalis ATCC23246, Haemophilus influenzae ATCC49247 and Escherichia coli ATCC25922) is determined by broth microdilution using the Clinical and Laboratory Standards (CLSI) recommended procedure (Document M7-[…], Methods for Dilution Susceptibility Tests for Bacteria that Grow Aerobically). Compounds are dissolved in DMSO to produce a 50 mM stock solution. The stock solution is diluted to a concentration of 128 μg/mL in appropriate media (Haemophilus Test Medium for Haemophilus influenzae, Mueller-Hinton Broth for Staphylococcus aureus, Moraxella catarrhalis and Escherichia coli, and Mueller-Hinton Broth supplemented with 5% horse serum for Streptococcus pyogenes and Streptococcus pneumoniae) to produce a working solution. A Tecan Genesis 150 Workstation (Tecan Group Ltd. Mannedorf, Switzerland) is used to prepare serial two-fold dilutions (50 μL aliquots) of the working solution in a U-shape bottom 96 well microtitre plate. After the compounds are diluted, a 50 μL aliquot of the test isolate ( 1×10^6 cfu/ml) is added to each well of the microtitre plate. The final test concentrations range from 0.125-64 μg/mL. Inoculated plates are incubated at 35° C. in ambient air for 18 to 24 hours. The minimum inhibitory concentration (MIC) is determined as the lowest concentration of compound that inhibited visible growth.

[3] = test system: Moraxella catarrhalis ATCC23246; assay: Anti-bacterial screening, broth microdilution MIC; assay type: cell-based; details: read-out: minimal inhibitory concentration (MIC)
Procedure: as §2

[4] = test system: Haemophilus influenzae ATCC49247; assay: Anti-bacterial screening, broth microdilution MIC; assay type: cell-based; details: read-out: minimal inhibitory concentration (MIC)
Procedure: as §2

[5] = test system: Streptococcus pyogenes ATCC700294; assay: Anti-bacterial screening, broth microdilution MIC; assay type: cell-based; details: read-out: minimal inhibitory concentration (MIC)
Procedure: as §2

[6] = test system: Escherichia coli ATCC25922; assay: Anti-bacterial screening, broth microdilution MIC; assay type: cell-based; details: read-out: minimal inhibitory concentration (MIC)
Procedure: as §2

[7] = test system: Staphylococcus aureus ATCC13709; assay: Anti-bacterial screening, broth microdilution MIC; assay type: cell-based; details: read-out: minimal inhibitory concentration (MIC)
Procedure: as §2

[8] = In vitro stability in human whole blood; assay type: in vitro ADME; details: 37° C.
Procedure: as §1

[9] = test system: Lung neutrophilia induced by bacterial lipopolysaccharide (LPS); assay: Lung neutrophilia induced by bacterial lipopolysaccharide (LPS) in male BALB/cJ mice; assay type: in vivo; details: average; single dose 200 mg/kg i.p.; vs LPS challenged untreated animals
Procedure: For intraperitoneal administration (i.p.) compounds are dissolved in a final concentration of 10 mg/mL. The required amount of compound is first dissolved in dimethylsulfoxide (DMSO, Sigma) and then diluted with 0.5% (w/v) methyl-cellulose so that the final DMSO concentration is 5% (v/v). The obtained solution is applied in a dose volume of 0.2 mL per 10 g of animal. Therefore, the compound dose is 200 mg/kg.
Male BALB/cJ mice (Charles River, France), with an average weight of ˜30 g are randomly grouped (n=8 in testing group, 10 in positive control and 8 in negative control). Mice receive intraperitoneally (i.p.) a single dose of 200 mg/kg of test compound. Two hours after administration, 2 μg of LPS (from Escherichia coli serotype 0111:B4, Sigma), dissolved in sterile PBS in a volume of 60 μL, is intranasally administered to all experimental groups except the negative control group, which receive the same volume of vehicle (PBS). Animals are sacrificed approximately 24 hours after application of LPS in order to obtain bronchioalveolar lavage fluid (BALF), which is used to determine absolute number of cells and the percentage of neutrophils. Results are expressed as percentage decrease in total cell number and number of neutrophils in BALF of treated animals compared to positive control (LPS challenged, but untreated animals).

Row | Compound | compound remaining in plasma ([1]; after 24 hours) | MIC [2] [µg/mL] | MIC [3] [µg/mL] | MIC [4] [µg/mL] | MIC [5] [µg/mL] | MIC [6] [µg/mL] | MIC [7] [µg/mL] | compound remaining in whole blood ([8]; after 24 hours) | inhibition of the number of neutrophils in BALF [9] | stability in plasma ([1]; 2000 ng/mL, over 24 hours) | stability in whole blood ([8]; 2000 ng/mL, over 24 hours)
1 | CC[C@H]1OC(=O)[C@H](C)[C@@H](O[C@H]2C[C@@](C)(OC)[C@@H](OC(=O)CCN(CC)CC)[C@H](C)O2)[C@H](C)[C@@H](O[C@@H]2O[C@H](C)C[C@H](NC)[C@H]2O)[C@](C)(OC)C[C@@H](C)C(=O)N[C@H](C)[C@@H](O)[C@]1(C)O [Example 2, 3′-N-Demethyl-4″-O-(3-diethylaminopropionoyl)-6-O-methyl-9a-aza-9a-homoerythromycin A] | less than 2% | > 64 | > 64 | > 64 | > 64 | > 64 | > 64 | around 41% | more than 70% |  | 
2 | CC[C@H]1OC(=O)[C@H](C)[C@@H](O[C@H]2C[C@@](C)(OC)[C@@H](OC(=O)CN(CC)CC)[C@H](C)O2)[C@H](C)[C@@H](O[C@@H]2O[C@H](C)C[C@H](N(C)C)[C@H]2O)[C@](C)(OC)C[C@@H](C)C(=O)N[C@H](C)[C@@H](O)[C@]1(C)O [Example 3, 4″-O-(2-diethylaminoethanoyl)-6-O-methyl-9a-aza-9a-homoerythromycin A] |  | 8 (≈ 9.13 µM) | 8 (≈ 9.13 µM) | > 64 | > 64 | > 64 | > 64 |  | more than 79% | stable | stable
